Measurements taken from US20150164895A1, “DETERMINING SENSITIVITY OF CELLS TO B-RAF INHIBITOR TREATMENT BY DETECTING KRAS MUTATION AND RTK EXPRESSION LEVELS” (GENENTECH, INC., priority 2009, published 2015).

Experiments:
[1] = system: HT-29 BRAF V600E human colorectal carcinoma xenografts; test: HT-29 xenograft combination efficacy; assay type: in vivo, NCR nude (Taconic) mice; settings: RAF inh a and Tarceva given in combination
Method: (§1) In FIG. 34A, RAF inh a was given at 100 mg/kg with increasing doses of Tarceva. In FIG. 34B, Tarceva was given to all animals with increasing concentrations of RAF inh a. […] In FIG. 34C, lysates from tumors treated with the indicated doses of inhibitors in FIGS. 34A and B were analyzed for phospho-ERK (pERK) levels by western blot.

[2] = system: pERK in BRAF V600E cells expressing EGFR; test: pERK MSD assay, basal and EGF-stimulated; assay type: cell-based; settings: serum starved, -EGF or +EGF
Method: (A) Table of genotype and EGFR levels among lines tested. (B) Measurement of basal and stimulated pERK levels: cells were treated with […] compound in serum free media for 1 hour. For stimulation 20 ng/ml EGF was added for 5 min before cells were lysed. Lysates were transferred to an MSD plate where phospho- and total ERK levels were measured. (C) pERK IC50 data are plotted for the two Raf inhibitors (CHR-265, 1-methyl-5-[[2-[5-(trifluoromethyl)-1H-imidazol-2-yl]-4-pyridinyl]oxy]-N-[4-(trifluoromethyl)phenyl]-1H-Benzimidazol-2-amine and GDC-0879) under basal and EGF-stimulated conditions.
FIG. 29 summarizes certain RAF inhibitor (GDC-0879, PLX-4720 and “Raf inh a” which is 2,6-difluoro-N-(3-methoxy-1H-pyrazolo[3,4-b]pyridin-5-yl)-3-(propylsulfonamido)benzamide) potencies for blocking cellular pERK induction in response to EGF stimulation.

[3] = system: phospho-ERK (pERK) levels in HT-29 tumors; test: phospho-ERK western blot of HT-29 tumor lysates; assay type: in vivo; settings: RAF inhibitor a and Tarceva co-administered in mice
Method: as §1

B-RAFV600E cells = test: Cellular proliferation of B-RAFV600E cells in presence of EGF, single agents and combinations; assay type: cell-based; settings: in combination with RAF inhibitor; 20 ng/ml EGF in the media
Method: (A) Cells were treated with […] compound in serum free media for 1 hour. For stimulation 20 ng/ml EGF was added for 5 min before cells were lysed. Lysates were transferred to an MSD plate where phospho- and total MEK levels were measured. […] Cells were dosed with indicated inhibitors, either alone or in combination in the presence of 20 ng/ml EGF in the media.

[4] = system: Venus-C-RAF / CFP-K-RAS in HEK293T cells; test: C-RAF plasma membrane translocation, live cell confocal imaging; assay type: cell-based; set-up: dose or concentration left out as unconfirmed
Excerpt: Aliquots of the membrane and cytosolic fractions were immunoblotted with the indicated antibodies. (B) HEK293T cells were transiently transfected with Venus-C-RAF (green), CFP-K-RAS (red) and mCherry-H2B (blue).

CX-1 cells = test: Combination study of RAF inhibitor and Tarceva in colon tumor lines; assay type: cell-based; settings: Tarceva administered together with RAF inhibitor; CX-1 (high EGFR)
Excerpt: FIGS. 32A-C depict combination studies of RAF inhibitor and EGFR inhibitor (Tarceva) in colon tumor lines with different levels of EGFR expression.
In FIG. 32C, the effects of combination treatment of CX-1 cells with either RAF inhibitor alone, Tarceva alone or combination of RAF inhibitor and Tarceva are shown. Neither RAF inhibitor alone nor Tarceva alone suppress proliferation as effectively as the combination. Both inhibitors show good synergy when administered together to CX-1 cells.

| Compound | antitumor efficacy in combination [1] | blocking wildtype RAF signaling / selectivity (pERK induction in response to EGF) [2] | phospho-ERK levels in the tumors [3] | resistance of cellular proliferation to RAF inhibitors under EGF (B-RAFV600E cells) | also measured |
| --- | --- | --- | --- | --- | --- |
| CCCS(=O)(=O)Nc1ccc(F)c(C(=O)Nc2cnc3[nH]nc(OC)c3c2)c1F [Raf inh a, 2,6-difluoro-N-(3-methoxy-1H-pyrazolo[3,4-b]pyridin-5-yl)-3-(propylsulfonamido)benzamide] | Increased efficacy | BRAF V600E selective | synergized in decreasing phospho-ERK levels |  |  |
| O=C(NOC[C@H](O)CO)c1ccc(F)c(F)c1Nc1ccc(I)cc1F [PD-0325901] |  |  |  | overcomes that resistance |  |
| Cc1ccc(NC(=O)c2cccc(C(C)(C)C#N)c2)cc1Nc1ccc2ncn(C)c(=O)c2c1 [AZ-628, 3-(2-cyanopropan-2-yl)-N-(4-methyl-3-(3-methyl-4-oxo-3,4-dihydroquinazolin-6-ylamino)phenyl)benzamide] |  |  |  |  | Venus-tagged C-RAF membrane translocation [4]: co-localizes with CFP-KRAS on the plasma membrane |
| C#Cc1cccc(Nc2ncnc3cc(OCCOC)c(OCCOC)cc23)c1 [Tarceva, erlotinib] | Increased efficacy |  | synergized in decreasing phospho-ERK levels | overcomes that resistance | suppression of proliferation, combination effect (CX-1 cells): good synergy |
| CCCS(=O)(=O)Nc1ccc(F)c(C(=O)c2c[nH]c3ncc(Cl)cc23)c1F [PLX4720, N-[3-[(5-chloro-1H-pyrrolo[2,3-b]pyridin-3-yl)carbonyl]-2,4-difluorophenyl]-1-propanesulfonamide] |  | BRAF V600E selective |  |  |  |
